Results reported in patent publication US12077503B2, “Substituted cyclic amides and their use as herbicides” (FMC CORPORATION, priority 2015, dated 2024).

Key:
Assay in all cases: Test C preemergence
Format in all cases: in vivo
[1] = system: Galium (catchweed bedstraw, Galium aparine); settings: for Plant response rating, Galium: scale 0 to 100, 0 no effect, 100 complete control
In short: (§1)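 Preemergence application to seeds in loam/sand soil, or foliar (postemergence) application to plants 2–18 cm tall in peat moss/vermiculite medium; surfactant-containing non-phytotoxic solvent vehicle; greenhouse. Visual injury vs controls at 13–15 d; 0 = no effect, 100 = complete control.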

[2] = system: barnyardgrass (Echinochloa crus-galli); settings: for Plant response rating, Barnyardgrass: scale 0 to 100, 0 no effect, 100 complete control
In short: as §1

[3] = system: blackgrass (Alopecurus myosuroides); settings: for Plant response rating, Blackgrass: scale 0 to 100, 0 no effect, 100 complete control
In short: as §1

corn (Zea mays) = settings: for Plant response rating, Corn: scale 0 to 100, 0 no effect, 100 complete control
In short: as §1

[4] = system: crabgrass, large (large crabgrass, Digitaria sanguinalis); settings: for Plant response rating, Crabgrass, Large: scale 0 to 100, 0 no effect, 100 complete control
In short: as §1

[5] = system: foxtail, giant (giant foxtail, Setaria faberii); settings: for Plant response rating, Foxtail, Giant: scale 0 to 100, 0 no effect, 100 complete control
In short: as §1

[6] = system: johnsongrass (Sorghum halepense); settings: for Plant response rating, Johnsongrass: scale 0 to 100, 0 no effect, 100 complete control
In short: as §1

[7] = system: lambsquarters (Chenopodium album); settings: for Plant response rating, Lambsquarters: scale 0 to 100, 0 no effect, 100 complete control
In short: as §1

[8] = system: morningglory (Ipomoea coccinea); settings: for Plant response rating, Morningglory: scale 0 to 100, 0 no effect, 100 complete control
In short: as §1

[9] = system: nutsedge, yellow (yellow nutsedge, Cyperus esculentus); settings: for Plant response rating, Nutsedge, Yellow: scale 0 to 100, 0 no effect, 100 complete control
In short: as §1

[10] = system: oilseed rape (Brassica napus); settings: for Plant response rating, Oilseed Rape: scale 0 to 100, 0 no effect, 100 complete control
In short: as §1

[11] = system: pigweed (Amaranthus retroflexus); settings: for Plant response rating, Pigweed: scale 0 to 100, 0 no effect, 100 complete control
In short: as §1

[12] = system: ragweed (common ragweed, Ambrosia elatior); settings: for Plant response rating, Ragweed: scale 0 to 100, 0 no effect, 100 complete control
In short: as §1

[13] = system: ryegrass, Italian (Italian ryegrass, Lolium multiflorum); settings: for Plant response rating, Ryegrass, Italian: scale 0 to 100, 0 no effect, 100 complete control
In short: as §1

soybean (Glycine max) = settings: for Plant response rating, Soybean: scale 0 to 100, 0 no effect, 100 complete control
In short: as §1

[14] = system: velvetleaf (Abutilon theophrasti); settings: for Plant response rating, Velvetleaf: scale 0 to 100, 0 no effect, 100 complete control
In short: as §1

[15] = system: waterhemp (common waterhemp, Amaranthus rudis); settings: for Plant response rating, Waterhemp: scale 0 to 100, 0 no effect, 100 complete control
In short: as §1

[16] = system: wheat (winter wheat, Triticum aestivum); settings: for Plant response rating, Wheat: scale 0 to 100, 0 no effect, 100 complete control
In short: as §1

[17] = 31 g ai/ha, 0 is no effect, 100 is complete control

SMILES: CN1CC(c2cccc(OC(F)F)c2)C(C(=O)Nc2ccccc2S(C)(=O)=O)C1=O (stereo not drawn) [Compound 523]
- Plant response rating (scale of 0 to 100), Galium [1, 17]: 0
- Plant response rating, Galium ([1]; 62 g ai/ha): 80
- Plant response rating, Galium ([1]; 125 g ai/ha): 80
- Plant response rating, Galium ([1]; 250 g ai/ha): 80
- Plant response rating (scale of 0 to 100), Barnyardgrass [2, 17]: 65
- Plant response rating, Barnyardgrass ([2]; 62 g ai/ha): 95
- Plant response rating, Barnyardgrass ([2]; 125 g ai/ha): 98
- Plant response rating, Barnyardgrass ([2]; 250 g ai/ha): 100
- Plant response rating (scale of 0 to 100), Blackgrass [3, 17]: 0
- Plant response rating, Blackgrass ([3]; 62 g ai/ha): 0
- Plant response rating, Blackgrass ([3]; 125 g ai/ha): 20
- Plant response rating, Blackgrass ([3]; 250 g ai/ha): 90
- Plant response rating (scale of 0 to 100), Corn (corn (Zea mays); [17]): 0
- Plant response rating, Corn (corn (Zea mays); 62 g ai/ha): 20
- Plant response rating, Corn (corn (Zea mays); 125 g ai/ha): 65
- Plant response rating, Corn (corn (Zea mays); 250 g ai/ha): 85
- Plant response rating (scale of 0 to 100), Crabgrass, Large [4, 17]: 90
- Plant response rating, Crabgrass, Large ([4]; 62 g ai/ha): 95
- Plant response rating, Crabgrass, Large ([4]; 125 g ai/ha): 100
- Plant response rating, Crabgrass, Large ([4]; 250 g ai/ha): 98
- Plant response rating (scale of 0 to 100), Foxtail, Giant [5, 17]: 85
- Plant response rating, Foxtail, Giant ([5]; 62 g ai/ha): 90
- Plant response rating, Foxtail, Giant ([5]; 125 g ai/ha): 98
- Plant response rating, Foxtail, Giant ([5]; 250 g ai/ha): 98
- Plant response rating (scale of 0 to 100), Johnsongrass [6, 17]: 0
- Plant response rating, Johnsongrass ([6]; 62 g ai/ha): 30
- Plant response rating, Johnsongrass ([6]; 125 g ai/ha): 60
- Plant response rating, Johnsongrass ([6]; 250 g ai/ha): 70
- Plant response rating (scale of 0 to 100), Lambsquarters [7, 17]: 20
- Plant response rating, Lambsquarters ([7]; 62 g ai/ha): 70
- Plant response rating, Lambsquarters ([7]; 125 g ai/ha): 70
- Plant response rating, Lambsquarters ([7]; 250 g ai/ha): 65
- Plant response rating (scale of 0 to 100), Morningglory [8, 17]: 20
- Plant response rating, Morningglory ([8]; 62 g ai/ha): 35
- Plant response rating, Morningglory ([8]; 125 g ai/ha): 25
- Plant response rating, Morningglory ([8]; 250 g ai/ha): 35
- Plant response rating (scale of 0 to 100), Nutsedge, Yellow [9, 17]: 0
- Plant response rating, Nutsedge, Yellow ([9]; 62 g ai/ha): 0
- Plant response rating, Nutsedge, Yellow ([9]; 125 g ai/ha): 0
- Plant response rating, Nutsedge, Yellow ([9]; 250 g ai/ha): 40
- Plant response rating (scale of 0 to 100), Oilseed Rape [10, 17]: 0
- Plant response rating, Oilseed Rape ([10]; 62 g ai/ha): 0
- Plant response rating, Oilseed Rape ([10]; 125 g ai/ha): 30
- Plant response rating, Oilseed Rape ([10]; 250 g ai/ha): 60
- Plant response rating (scale of 0 to 100), Pigweed [11, 17]: 75
- Plant response rating, Pigweed ([11]; 62 g ai/ha): 100
- Plant response rating, Pigweed ([11]; 125 g ai/ha): 90
- Plant response rating, Pigweed ([11]; 250 g ai/ha): 90
- Plant response rating (scale of 0 to 100), Ragweed [12, 17]: 5
- Plant response rating, Ragweed ([12]; 62 g ai/ha): 15
- Plant response rating, Ragweed ([12]; 125 g ai/ha): 40
- Plant response rating, Ragweed ([12]; 250 g ai/ha): 70
- Plant response rating (scale of 0 to 100), Ryegrass, Italian [13, 17]: 0
- Plant response rating, Ryegrass, Italian ([13]; 62 g ai/ha): 5
- Plant response rating, Ryegrass, Italian ([13]; 125 g ai/ha): 5
- Plant response rating, Ryegrass, Italian ([13]; 250 g ai/ha): 20
- Plant response rating (scale of 0 to 100), Soybean (soybean (Glycine max); [17]): 10
- Plant response rating, Soybean (soybean (Glycine max); 62 g ai/ha): 25
- Plant response rating, Soybean (soybean (Glycine max); 125 g ai/ha): 30
- Plant response rating, Soybean (soybean (Glycine max); 250 g ai/ha): 45
- Plant response rating (scale of 0 to 100), Velvetleaf [14, 17]: 0
- Plant response rating, Velvetleaf ([14]; 62 g ai/ha): 0
- Plant response rating, Velvetleaf ([14]; 125 g ai/ha): 30
- Plant response rating, Velvetleaf ([14]; 250 g ai/ha): 45
- Plant response rating (scale of 0 to 100), Waterhemp [15, 17]: 55
- Plant response rating, Waterhemp ([15]; 62 g ai/ha): 65
- Plant response rating, Waterhemp ([15]; 125 g ai/ha): 65
- Plant response rating, Waterhemp ([15]; 250 g ai/ha): 80
- Plant response rating (scale of 0 to 100), Wheat [16, 17]: 0
- Plant response rating, Wheat ([16]; 62 g ai/ha): 30
- Plant response rating, Wheat ([16]; 125 g ai/ha): 50
- Plant response rating, Wheat ([16]; 250 g ai/ha): 80
